# In US11827628B2, “Compositions and methods for inhibition of the JAK pathway” (Rigel Pharmaceuticals, Inc., priority 2005, dated 2023):
# System: up-regulation of ICAM-1 (CD54) by IFNγ in U937 human monocytic cells
# Assay: U937 IFNγ ICAM1 FACS Assay
# Format: cell-based
# Details: U937 cells stimulated with IFNγ; ICAM-1 expression by FACS; read-out: IC50, Example 44
# In short: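 U937 cells in 10% FCS RPMI were preincubated 30 min at 37 °C with an 8-point, 3-fold compound dilution series in duplicate, then stimulated with IFNγ for 18–24 h. Surface ICAM-1 was stained with APC anti-ICAM-1 and read by flow cytometry as geometric mean on live-gated cells. EC50 was derived.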
row,SMILES,IC50 [nM]
1,"Cc1noc(COc2ccc(Nc3nc(Nc4ccc(S(N)(=O)=O)cc4)ncc3F)cc2)n1 [Compound I-231, N2-(4-Aminosulfonylphenyl)-5-fluoro-N4-[4-(3-methyl-1,2,4-oxadiazol-5-yl)methyleneoxyphenyl]-2,4-pyrimidinediamine]",8400
2,"Cc1cc(Nc2nc(Nc3ccc(S(N)(=O)=O)cc3)ncc2F)ccc1OCC#N [Compound I-22, N2-(4-Aminosulfonyl)phenyl-N4-(4-cyanomethoxy-3-methyl)phenyl-5-fluoro-2,4-pyrimidinediamine]",4430
3,"Cc1noc(COc2cccc(Nc3nc(Nc4ccc(C)c(S(N)(=O)=O)c4)ncc3F)c2)n1 [Compound I-254, N2-(3-Aminosulfonyl-4-methylphenyl)-5-fluoro-N4-[3-(3-methyl-1,2,4-oxadiazol-5-yl)methyleneoxyphenyl]-2,4-pyrimidinediamine]",1820
4,"Cc1cc(COc2ccc(Nc3nc(Nc4cc(C)c(F)c(S(N)(=O)=O)c4)ncc3F)cc2)no1 [Compound I-217, N2-(3-Aminosulfonyl-4-fluoro-5-methylphenyl)-5-fluoro-N4-[4-(5-methylisoxazol-3-yl)methyleneoxyphenyl]-2,4-pyrimidinediamine]",478
5,"CCN(CC)CCNS(=O)(=O)c1ccc(Nc2ncc(F)c(Nc3ccc(OCc4nc(C)no4)cc3)n2)cc1 [Compound I-263, N2-[4-(2-N,N-Diethylaminoethyl)aminosulfonylphenyl)-5-fluoro-N4-[4-(3-methyl-1,2,4-oxadiazol-5-yl)methyleneoxyphenyl]-2,4-pyrimidinediamine]",665
6,"N#CCOc1ccc(Nc2nc(Nc3ccc(Cl)c(S(N)(=O)=O)c3)ncc2F)cc1 [Compound I-21, N2-(3-Aminosulfonyl-4-chlorophenyl)-N4-(4-cyanomethoxy)phenyl-5-fluoro-2,4-pyrimidinediamine]",822
7,"CCN(CC)CCNS(=O)(=O)c1ccc(Nc2ncc(F)c(Nc3ccc(OCc4csc(C)n4)cc3)n2)cc1 [Compound I-284, N2-[4-(2-N,N-Diethylaminoethyl)aminosulfonylphenyl)-5-fluoro-N4-[4-(2-methylthizol-4-yl)methyleneoxyphenyl]-2,4-pyrimidinediamine]",1550
8,"Cc1noc(COc2ccc(Nc3nc(Nc4cccc(S(N)(=O)=O)c4)ncc3F)cc2)n1 [Compound I-258, N2-(3-Aminosulfonylphenyl)-5-fluoro-N4-[4-(3-methyl-1,2,4-oxadiazol-5-yl)methyleneoxyphenyl]-2,4-pyrimidinediamine]",324
9,"Cc1ccc(Nc2ncc(F)c(Nc3ccc(OCC#N)cc3)n2)cc1S(N)(=O)=O [Compound I-20, N2-(3-Aminosulfonyl-4-methyl)phenyl-N4-(4-cyanomethoxy)phenyl-5-fluoro-2,4-pyrimidinediamine]",339

# Next, values leading:
row,IC50 [nM],SMILES
1,6500,"Cc1ccc(Nc2ncc(F)c(Nc3ccc(OC4CCCN(C)C4)c(Cl)c3)n2)cc1S(N)(=O)=O (racemic) [II-3, Racemic N2-(3-aminosulfonyl-4-methylphenyl)-N4-{3-chloro-4-[(1-methylpiperidin-3-yl)oxy]phenyl}-5-fluoro-2,4-pyrimidinediamine]"
2,585,"N#CCCc1ccc(Nc2nc(Nc3cccc(S(N)(=O)=O)c3)ncc2F)cc1 [III-14, N2-(3-aminosulfonylphenyl)-N4-[4-(cyanoethylene)phenyl]-5-fluoro-2,4-pyrimidinediamine]"
3,1720,"N#CCc1ccc(Nc2nc(Nc3cccc(S(N)(=O)=O)c3)ncc2F)cc1 [III-4, N2-(3-Aminosulfonyl)phenyl-N4-(4-cyanomethyl)phenyl-5-fluoro-2,4-pyrimidinediamine]"
4,6720,"CCN(CC)CCNS(=O)(=O)c1ccc(Nc2ncc(F)c(Nc3ccc(CC#N)cc3)n2)cc1 [III-2, N2-[4-(2-N,N-Diethylaminoethyl)aminosulfonylphenyl)-5-fluoro-N4-(4-cyanomethylphenyl)-2,4-pyrimidinediamine]"
